According to PubChem BioAssay (NCI):
Where “and” joins values, the source holds several entries; their conditions need not be identical. Identical values can stand only once.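 Results reflect a 48-hour exposure of cells in 96-well plates to compound at five concentrations. GI50: concentration for 50% inhibition of growth. TGI is the concentration that stops growth completely.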

Tests used:
Experiment in all cases: NCI anticancer screen, dose series, 48 h
ACHN renal = test system: ACHN renal
KM12 colon = test system: KM12 colon
MDA-MB-231 breast = test system: MDA-MB-231 breast
SNB-19 CNS = test system: SNB-19 CNS
LOX IMVI melanoma = test system: LOX IMVI melanoma
SK-MEL-5 melanoma = test system: SK-MEL-5 melanoma
MALME-3M melanoma = test system: MALME-3M melanoma
SF-295 CNS = test system: SF-295 CNS
DU-145 prostate = test system: DU-145 prostate
MCF7 breast = test system: MCF7 breast
PC-3 prostate = test system: PC-3 prostate
OVCAR-5 ovarian = test system: OVCAR-5 ovarian
MDA-N = test system: MDA-N
SF-539 CNS = test system: SF-539 CNS
UO-31 renal = test system: UO-31 renal
HOP-62 NSCLC = test system: HOP-62 NSCLC
A549 NSCLC = test system: A549 NSCLC
HS 578T breast = test system: HS 578T breast
NCI/ADR-RES ovarian = test system: NCI/ADR-RES ovarian
SN12C renal = test system: SN12C renal
A498 renal = test system: A498 renal
SK-MEL-28 melanoma = test system: SK-MEL-28 melanoma
HT29 colon = test system: HT29 colon
M14 melanoma = test system: M14 melanoma
RXF 393 renal = test system: RXF 393 renal
K-562 leukemia = test system: K-562 leukemia
CAKI-1 renal = test system: CAKI-1 renal
UACC-257 melanoma = test system: UACC-257 melanoma
EKVX NSCLC = test system: EKVX NSCLC
IGROV1 ovarian = test system: IGROV1 ovarian
RPMI-8226 leukemia = test system: RPMI-8226 leukemia
HCT-15 colon = test system: HCT-15 colon
NCI-H226 lung = test system: NCI-H226 lung
T-47D breast = test system: T-47D breast
COLO 205 colon = test system: COLO 205 colon
SK-MEL-2 melanoma = test system: SK-MEL-2 melanoma
SF-268 CNS = test system: SF-268 CNS
HOP-92 NSCLC = test system: HOP-92 NSCLC
TK-10 renal = test system: TK-10 renal
HL-60(TB) leukemia = test system: HL-60(TB) leukemia
OVCAR-3 ovarian = test system: OVCAR-3 ovarian
786-0 renal = test system: 786-0 renal
NCI-H23 lung = test system: NCI-H23 lung
BT-549 breast = test system: BT-549 breast
MDA-MB-435 = test system: MDA-MB-435
OVCAR-4 ovarian = test system: OVCAR-4 ovarian
SW-620 colon = test system: SW-620 colon
SK-OV-3 ovarian = test system: SK-OV-3 ovarian
CCRF-CEM leukemia = test system: CCRF-CEM leukemia
HCT-116 colon = test system: HCT-116 colon
MOLT-4 leukemia = test system: MOLT-4 leukemia
SNB-75 CNS = test system: SNB-75 CNS
NCI-H460 lung = test system: NCI-H460 lung
UACC-62 melanoma = test system: UACC-62 melanoma
HCC-2998 colon = test system: HCC-2998 colon
NCI-H522 lung = test system: NCI-H522 lung
U251 CNS = test system: U251 CNS
OVCAR-8 ovarian = test system: OVCAR-8 ovarian
SR leukemia = test system: SR leukemia

## C/C1=C\CC[C@@]2(C)O[C@@H]2C[C@@H]2[C@H](C/C(C)=C/CC1)OC(=O)C21CCN=N1 (stereo not given in full)
ACHN renal
  GI50: > 100 µM
  TGI: 75 µM and > 100 µM
KM12 colon
  GI50: > 100 µM
  TGI: > 100 µM
MDA-MB-231 breast
  GI50: > 100 µM
  TGI: > 100 µM
SNB-19 CNS
  GI50: > 100 µM
  TGI: > 100 µM
LOX IMVI melanoma
  TGI: 75 µM
SK-MEL-5 melanoma
  GI50: > 100 µM
  TGI: 75 µM and > 100 µM
MALME-3M melanoma
  TGI: > 75 µM
SF-295 CNS
  GI50: > 100 µM
  TGI: 75 µM and > 100 µM
DU-145 prostate
  GI50: > 100 µM
  TGI: > 100 µM
MCF7 breast
  GI50: > 100 µM
  TGI: > 100 µM
PC-3 prostate
  GI50: > 100 µM
  TGI: > 100 µM
OVCAR-5 ovarian
  GI50: > 100 µM
  TGI: > 100 µM
MDA-N
  GI50: > 100 µM
  TGI: > 100 µM
SF-539 CNS
  GI50: > 100 µM
  TGI: > 100 µM
UO-31 renal
  GI50: > 100 µM
  TGI: > 100 µM
HOP-62 NSCLC
  GI50: > 100 µM
  TGI: 75 µM and > 100 µM
A549 NSCLC
  GI50: > 100 µM
  TGI: 75 µM and > 100 µM
HS 578T breast
  GI50: > 100 µM
  TGI: 75 µM and > 100 µM
NCI/ADR-RES ovarian
  GI50: > 100 µM
  TGI: > 100 µM
SN12C renal
  GI50: > 100 µM
  TGI: 75 µM and > 100 µM
A498 renal
  TGI: > 100 µM
SK-MEL-28 melanoma
  GI50: > 100 µM
  TGI: > 100 µM
HT29 colon
  GI50: > 100 µM
  TGI: > 100 µM
M14 melanoma
  GI50: > 100 µM
  TGI: > 100 µM
RXF 393 renal
  GI50: > 100 µM
  TGI: > 100 µM
K-562 leukemia
  GI50: 71.2 µM
  TGI: 42.7 µM and > 100 µM
CAKI-1 renal
  GI50: > 100 µM
  TGI: > 100 µM
UACC-257 melanoma
  GI50: > 100 µM
  TGI: > 100 µM
EKVX NSCLC
  GI50: > 100 µM
  TGI: > 100 µM
IGROV1 ovarian
  GI50: > 100 µM
  TGI: > 100 µM
RPMI-8226 leukemia
  GI50: > 100 µM
  TGI: 75 µM and > 100 µM
HCT-15 colon
  GI50: > 100 µM
  TGI: > 100 µM
NCI-H226 lung
  TGI: > 100 µM
T-47D breast
  TGI: > 100 µM
COLO 205 colon
  GI50: > 100 µM
  TGI: > 100 µM
SK-MEL-2 melanoma
  GI50: > 100 µM
  TGI: > 100 µM
SF-268 CNS
  GI50: > 100 µM
  TGI: > 100 µM
HOP-92 NSCLC
  TGI: > 75 µM
TK-10 renal
  GI50: > 100 µM
  TGI: > 100 µM
HL-60(TB) leukemia
  TGI: > 100 µM
OVCAR-3 ovarian
  GI50: > 100 µM
  TGI: > 100 µM
786-0 renal
  GI50: > 100 µM
  TGI: > 100 µM
NCI-H23 lung
  GI50: > 100 µM
  TGI: > 100 µM
BT-549 breast
  GI50: > 100 µM
  TGI: > 100 µM
MDA-MB-435
  GI50: > 100 µM
  TGI: > 100 µM
OVCAR-4 ovarian
  TGI: 75 µM
SW-620 colon
  GI50: > 100 µM
  TGI: > 100 µM
SK-OV-3 ovarian
  TGI: > 75 µM
CCRF-CEM leukemia
  GI50: 44.9 µM
  TGI: 75 µM and > 100 µM
HCT-116 colon
  GI50: > 100 µM
  TGI: > 100 µM
MOLT-4 leukemia
  GI50: > 100 µM
  TGI: 75 µM and > 100 µM
SNB-75 CNS
  GI50: > 100 µM
  TGI: 75 µM and > 100 µM
NCI-H460 lung
  GI50: > 100 µM
  TGI: 75 µM and > 100 µM
UACC-62 melanoma
  GI50: > 100 µM
  TGI: > 100 µM
HCC-2998 colon
  TGI: > 75 µM
NCI-H522 lung
  TGI: 75 µM
U251 CNS
  GI50: > 100 µM
  TGI: > 100 µM
OVCAR-8 ovarian
  GI50: > 100 µM
  TGI: > 100 µM

## COc1cc(-c2c3c([nH]c(=O)c2C#N)-c2cc([N+](=O)[O-])ccc2CCC3)cc(OC)c1OC
ACHN renal
  TGI: 70.6 µM
KM12 colon
  TGI: > 100 µM
MDA-MB-231 breast
  TGI: 79.2 µM
SNB-19 CNS
  TGI: > 100 µM
LOX IMVI melanoma
  TGI: > 100 µM
SK-MEL-5 melanoma
  TGI: 26.7 µM
MALME-3M melanoma
  TGI: 73.9 µM
SF-295 CNS
  TGI: 33.1 µM
DU-145 prostate
  TGI: > 100 µM
MCF7 breast
  TGI: 44.5 µM
PC-3 prostate
  TGI: > 100 µM
OVCAR-5 ovarian
  TGI: 69.1 µM
MDA-N
  TGI: 55 µM
SF-539 CNS
  TGI: > 100 µM
UO-31 renal
  TGI: 75.1 µM
HOP-62 NSCLC
  TGI: 92.2 µM
A549 NSCLC
  TGI: 81.8 µM
HS 578T breast
  TGI: 73.3 µM
NCI/ADR-RES ovarian
  TGI: > 100 µM
SN12C renal
  TGI: 46.7 µM
A498 renal
  TGI: 66.9 µM
SK-MEL-28 melanoma
  TGI: > 100 µM
HT29 colon
  TGI: > 100 µM
M14 melanoma
  TGI: > 100 µM
RXF 393 renal
  TGI: 82.8 µM
K-562 leukemia
  TGI: > 100 µM
CAKI-1 renal
  TGI: 87.9 µM
UACC-257 melanoma
  TGI: > 100 µM
EKVX NSCLC
  TGI: 70.5 µM
IGROV1 ovarian
  TGI: > 100 µM
RPMI-8226 leukemia
  TGI: 52.1 µM
HCT-15 colon
  TGI: > 100 µM
NCI-H226 lung
  TGI: 89 µM
T-47D breast
  TGI: > 100 µM
COLO 205 colon
  TGI: 43.3 µM
SK-MEL-2 melanoma
  TGI: 44.3 µM
SF-268 CNS
  TGI: > 100 µM
HOP-92 NSCLC
  TGI: > 100 µM
TK-10 renal
  TGI: > 100 µM
HL-60(TB) leukemia
  TGI: 72.7 µM
OVCAR-3 ovarian
  TGI: 46.3 µM
786-0 renal
  TGI: 65.2 µM
NCI-H23 lung
  TGI: 45.8 µM
BT-549 breast
  TGI: 61.3 µM
MDA-MB-435
  TGI: > 100 µM
OVCAR-4 ovarian
  TGI: > 100 µM
SW-620 colon
  TGI: > 100 µM
SK-OV-3 ovarian
  TGI: 66.4 µM
CCRF-CEM leukemia
  TGI: > 100 µM
HCT-116 colon
  TGI: 37.7 µM
MOLT-4 leukemia
  TGI: > 100 µM
SNB-75 CNS
  TGI: 62.6 µM
NCI-H460 lung
  TGI: 67 µM
UACC-62 melanoma
  TGI: 32.1 µM
HCC-2998 colon
  TGI: 46.1 µM
NCI-H522 lung
  TGI: 59 µM
U251 CNS
  TGI: > 100 µM
OVCAR-8 ovarian
  TGI: > 100 µM

## COP(=O)(OC)C(O)/C=C/c1ccco1 (stereo not given)
ACHN renal
  TGI: > 100 µM
KM12 colon
  TGI: > 100 µM
SNB-19 CNS
  TGI: > 100 µM
LOX IMVI melanoma
  TGI: > 100 µM
SK-MEL-5 melanoma
  TGI: > 100 µM
MALME-3M melanoma
  TGI: > 100 µM
SF-295 CNS
  TGI: > 100 µM
DU-145 prostate
  TGI: > 100 µM
MCF7 breast
  TGI: > 100 µM
PC-3 prostate
  TGI: > 100 µM
OVCAR-5 ovarian
  TGI: > 100 µM
MDA-N
  TGI: > 100 µM
UO-31 renal
  TGI: > 100 µM
HOP-62 NSCLC
  TGI: > 100 µM
A549 NSCLC
  TGI: > 100 µM
HS 578T breast
  TGI: > 100 µM
NCI/ADR-RES ovarian
  TGI: > 100 µM
SN12C renal
  TGI: > 100 µM
A498 renal
  TGI: > 100 µM
SK-MEL-28 melanoma
  TGI: > 100 µM
HT29 colon
  TGI: > 100 µM
M14 melanoma
  TGI: > 100 µM
RXF 393 renal
  TGI: > 100 µM
K-562 leukemia
  TGI: > 100 µM
CAKI-1 renal
  TGI: > 100 µM
UACC-257 melanoma
  TGI: > 100 µM
EKVX NSCLC
  TGI: > 100 µM
IGROV1 ovarian
  TGI: > 100 µM
RPMI-8226 leukemia
  TGI: > 100 µM
HCT-15 colon
  TGI: > 100 µM
NCI-H226 lung
  TGI: > 100 µM
T-47D breast
  TGI: > 100 µM
SR leukemia
  TGI: > 100 µM
COLO 205 colon
  TGI: > 100 µM
SK-MEL-2 melanoma
  TGI: > 100 µM
SF-268 CNS
  TGI: > 100 µM
HOP-92 NSCLC
  TGI: > 100 µM
HL-60(TB) leukemia
  TGI: > 100 µM
OVCAR-3 ovarian
  TGI: > 100 µM
786-0 renal
  TGI: > 100 µM
NCI-H23 lung
  TGI: > 100 µM
BT-549 breast
  TGI: > 100 µM
MDA-MB-435
  TGI: > 100 µM
OVCAR-4 ovarian
  TGI: > 100 µM
SW-620 colon
  TGI: > 100 µM
SK-OV-3 ovarian
  TGI: > 100 µM
HCT-116 colon
  TGI: > 100 µM
MOLT-4 leukemia
  TGI: > 100 µM
UACC-62 melanoma
  TGI: > 100 µM
NCI-H522 lung
  TGI: > 100 µM
U251 CNS
  TGI: > 100 µM
OVCAR-8 ovarian
  TGI: > 100 µM
